In the NIST ThermoML archive (doi:10.1016/j.jct.2009.11.010):

Tests used:
[1] = molar heat capacity at saturation pressure; conditions: Liquid
[2] = Liquid, Vibrating tube method

c1ccc2nc3ccccc3cc2c1 [acridine]
Conditions | mass density [kg/m3] | molar heat capacity [J/K/mol]
[1], 460 K | – | 343.6
[1], 480 K | – | 352.2
[1], 500 K | – | 360.6
[1], 520 K | – | 368.7
[1], 540 K | – | 376.4
[1], 560 K | – | 383.8
[1], 580 K | – | 390.8
[1], 600 K | – | 397.3
[2], 423.15 K | 1064.9 | –
[2], 448.15 K | 1043.7 | –
[2], 473.15 K | 1023.9 | –
[2], 498.15 K | 1005.1 | –
[2], 523.15 K | 985.4 | –
[2], 548.15 K | 964.8 | –
